Measurements reported in US12617762B2, “Carboxy derivatives with antiinflamatory properties” (Sitryx Therapeutics Limited, priority 2019, dated 2026).
Read-outs that look alike come from different tables or passages of the source.

What was measured:
Type in all cases: cell-based
[1] = tested on: NRF2 (nuclear factor erythroid 2-related factor 2); assay: NRF2 +/-GSH activation assay (DiscoverX PathHunter NRF2 translocation kit, U2OS cells)
Outline: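 U2OS PathHunter eXpress cells, 24 h post-plating, treated with compound ±GSH (+GSH arm: 30 min compound–GSH pre-incubation, 6 mM working GSH), then 6 h at 37 °C. NRF2 nuclear translocation read by enzyme-fragment-complementation chemiluminescence; % activation normalised to DMF high and untreated low controls.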

[2] = tested on: IL-6 cytokine output from THP-1s; assay: THP-1 AlphaLISA IL-6 cytokine inhibition assay; details: Homo sapiens, LPS then nigericin
Protocol: The cytokine inhibition profiles of compounds of formula (I) were determined in a differentiated THP-1 cell assay. All assays were performed in RPMI-1640 growth medium (Gibco), supplemented with 10% fetal bovine serum (FBS; Gibco), 1% penicillin-streptomycin and 1% sodium pyruvate unless specified otherwise. The IL-1β cytokine inhibition assay was run in a background of differentiated THP-1 cells as described below. All reagents described were from Sigma-Aldrich unless specified otherwise. Compounds were prepared as 10 mM DMSO stocks.
THP-1 cells were expanded as a suspension up to 80% confluence in appropriate growth medium. Cells were harvested, suspended, and treated with an appropriate concentration of phorbol 12-myristate 13-acetate (PMA) over a 72 hr period (37° C./5% CO2).
Following 72 hrs of THP-1 cell incubation, cellular medium was removed and replaced with fresh growth media containing 1% of FBS. Working concentrations of compounds were prepared separately in 10% FBS treated growth medium and pre-incubated with the cells for 30 minutes (37° C./5% CO2). Following the 30 minute compound pre-incubation, THP-1s were treated with an appropriate concentration of LPS and the cells were subsequently incubated for a 24 hr period (37° C./5% CO2). An appropriate final concentration of Nigericin was then dispensed into the THP-1 plates and incubated for 1 hour (37° C./5% CO2) before THP-1 supernatants were harvested and collected in separate polypropylene 96-well holding plates.
Reagents from an IL-1β and IL-6 commercial kit (Perkin Elmer) were prepared and run according to the manufacturer's instructions. Subsequently, fluorescence signal detection in a microplate reader was measured (EnVision® Multilabel Reader, Perkin Elmer).
Percentage inhibition was calculated per cytokine by normalising the sample data to the high and low controls used within each plate (+/− LPS respectively).

[3] = tested on: IL-1β cytokine output from THP-1s; assay: THP-1 AlphaLISA IL-1β cytokine inhibition assay; details: for IC50: Homo sapiens; for IL-1β lowering, result in words: THP-1 IL-1β assay
Outline: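 THP-1 cells differentiated with PMA for 72 h, pre-incubated with compound 30 min, then LPS-primed 24 h and Nigericin-stimulated 1 h (37° C./5% CO2). Supernatant IL-1β measured by AlphaLISA; percentage inhibition normalised to +LPS (high) and −LPS (low) plate controls.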

[4] = +GSH, 30 minute compound-GSH pre-incubation, read-out: NRF2 activation +GSH EC50
[5] = +GSH, normalised to DMF high control
[6] = −GSH, U2OS PathHunter cells, 6 hours compound treatment, read-out: NRF2 activation −GSH EC50
[7] = −GSH, normalised to DMF high control
[8] = THP-1, differentiated THP-1 cells
[9] = THP-1, differentiated THP-1 cells, LPS then nigericin

Row | IC50 ([2]; differentiated THP-1 cells) [µM] | EC50 ([1]; −GSH, Table 5 exo vs endo comparison, read-out: −GSH EC50) [µM] | IC50 ([3]; THP-1, Table 3, head to head comparison of exo vs endo double bond compounds) [µM] | SMILES | EC50 [1, 4] [µM] | NRF2 activation +GSH Emax [1, 5] [%] | EC50 [1, 6] [µM] | NRF2 activation −GSH Emax [1, 7] [%] | IC50 [2, 8] [µM] | IC50 [3, 9] [µM] | IL-1β lowering, result in words [3] | −GSH Emax ([1]; −GSH, normalised to DMF high control, Table 5 exo vs endo comparison) [%]
1 | – | – | – | C=C(Cc1nc(C(C)(C)CCCCCC)no1)C(=O)O [Example 26, 2-((3-(2-methyloctan-2-yl)-1,2,4-oxadiazol-5-yl)methyl)acrylic acid] | 35.6 | 137 | 27.3 | 205 | 22.6 | 36.3 | – | –
2 | – | – | – | C=C(Cc1nc(C(C)(C)c2ccc(Cl)cc2)no1)C(=O)O [Example 30, 2-((3-(2-(4-chlorophenyl)propan-2-yl)-1,2,4-oxadiazol-5-yl)methyl)acrylic acid] | > 100 | 12 | > 100 | 36 | > 100 | 53.3 | not effective | –
3 | – | – | – | C=C(Cc1nc(CC2CCCCC2)no1)C(=O)O [Example 32, 2-((3-(cyclohexylmethyl)-1,2,4-oxadiazol-5-yl)methyl)acrylic acid] | > 100 | 35 | 50.1 | 46 | > 100 | > 100 | not effective | –
4 | – | – | – | C#CCCCCCCc1noc(CC(=C)C(=O)O)n1 [Example 35, 2-((3-(oct-7-yn-1-yl)-1,2,4-oxadiazol-5-yl)methyl)acrylic acid] | 48.9 | 55 | 43.6 | 91 | 34.6 | > 100 | not effective | –
5 | – | – | – | C=C(Cc1nc(CCc2ccc(CC)cc2)no1)C(=O)O [Example 41, 2-((3-(4-ethylphenethyl)-1,2,4-oxadiazol-5-yl)methyl)acrylic acid] | 39.7 | 103 | 31.7 | 135 | 22.5 | 45.4 | – | –
6 | – | – | – | C=C(Cc1nc(Cc2ccc(C3(C(F)(F)F)CC3)cc2)no1)C(=O)O [Example 48, 2-((3-(4-(1-(trifluoromethyl)cyclopropyl)benzyl)-1,2,4-oxadiazol-5-yl)methyl)acrylic acid] | 50.3 | 61 | 31 | 120 | 38.5 | 40.2 | – | –
7 | – | – | – | C=C(Cc1ncc(CCCCCCCC)s1)C(=O)O [Example 55, 2-((5-octylthiazol-2-yl)methyl)acrylic acid] | 17.8 | 163 | 13.3 | 276 | 4.2 | 14.9 | – | –
8 | – | – | – | C=C(Cc1nc(CCC#CCCCC)no1)C(=O)O [Example 57, 2-((3-(oct-3-yn-1-yl)-1,2,4-oxadiazol-5-yl)methyl)acrylic acid] | 49.9 | 56 | 41.1 | 102 | 24.1 | > 100 | not effective | –
9 | – | – | – | C=C(Cc1nc(CCCCCCCC(F)F)no1)C(=O)O [Example 58, 2-((3-(8,8-difluorooctyl)-1,2,4-oxadiazol-5-yl)methyl)acrylic acid] | 30.6 | 105 | 26.4 | 149 | 16 | 36.9 | – | –
10 | – | – | – | C=C(Cc1nc(CCCCCC(C)C)no1)C(=O)O [Example 68, 2-((3-(6-methylheptyl)-1,2,4-oxadiazol-5-yl)methyl)acrylic acid] | – | – | – | – | 5.7 | 19.5 | – | –
11 | – | – | – | C=C(Cc1nc(Cc2ccc(CC(C)(C)C)cc2)no1)C(=O)O [Example 69, 2-((3-(4-neopentylbenzyl)-1,2,4-oxadiazol-5-yl)methyl)acrylic acid] | – | – | – | – | 10.1 | 48.6 | – | –
12 | – | – | – | C=C(Cc1nc(-c2ccc(C(F)(F)CC)cc2)no1)C(=O)O [Example 71, 2-((3-(4-(1,1-difluoropropyl)phenyl)-1,2,4-oxadiazol-5-yl)methyl)acrylic acid] | 37.1 | 146 | 28.8 | 178 | 8.3 | 54.9 | – | –
13 | – | – | – | C=C(Cc1nc(-c2ccc(CCC(F)(F)F)cc2)no1)C(=O)O [Example 73, 2-((3-(4-(3,3,3-trifluoropropyl)phenyl)-1,2,4-oxadiazol-5-yl)methyl)acrylic acid] | – | – | – | – | 10.4 | > 100 | not effective | –
14 | – | – | – | C=C(Cc1nc(-c2ccc(CCC3CC3)cc2)no1)C(=O)O [Example 76, 2-((3-(4-(2-cyclopropylethyl)phenyl)-1,2,4-oxadiazol-5-yl)methyl)acrylic acid] | – | – | – | – | 5.1 | 28.2 | – | –
15 | – | – | – | C=C(Cc1nc(C2(c3ccc(OC(F)F)cc3)CC2)no1)C(=O)O [Example 78, 2-((3-(1-(4-(difluoromethoxy)phenyl)cyclopropyl)-1,2,4-oxadiazol-5-yl)methyl)acrylic acid] | – | – | – | – | > 100 | 24.3 | – | –
16 | – | – | – | C=C(Cc1nc(C2(c3ccc(OCCCC)cc3)CC2)no1)C(=O)O [Example 80, 2-((3-(1-(4-butoxyphenyl)cyclopropyl)-1,2,4-oxadiazol-5-yl)methyl)acrylic acid] | – | – | – | – | 9.6 | 37.2 | – | –
17 | – | – | – | C=C(Cc1nc(CCCCCC(F)(F)CC(F)(F)F)no1)C(=O)O [Example 87, 2-((3-(6,6,8,8,8-pentafluorooctyl)-1,2,4-oxadiazol-5-yl)methyl)acrylic acid] | 48.6 | 70 | 41.4 | 95 | 31.7 | > 100 | not effective | –
18 | – | – | – | C=C(Cc1nc(-c2ccc(CCCC)cc2)co1)C(=O)O [Example 101, 2-((4-(4-butylphenyl)oxazol-2-yl)methyl)acrylic acid] | – | – | – | – | 4.6 | 52.4 | – | –
19 | 39.3 | – | – | C=C(Cc1ncc(CCCCCCCC)cn1)C(=O)O [Example 106] | 24.6 | 101 | 18.6 | 143 | – | 67.8 | – | –
20 | > 100 | – | – | C=C(Cc1nc(C2(c3ccc(OC)c(Cl)c3)CC2)no1)C(=O)O [Example 140, 2-((3-(1-(3-chloro-4-methoxyphenyl)cyclopropyl)-1,2,4-oxadiazol-5-yl)methyl)acrylic acid] | – | – | – | – | – | 29.5 | – | –
21 | 32.4 | – | – | C=C(Cc1nc(C2(c3ccc(C)c(Cl)c3)CC2)no1)C(=O)O [Example 141, 2-((3-(1-(3-chloro-4-methylphenyl)cyclopropyl)-1,2,4-oxadiazol-5-yl)methyl)acrylic acid] | 20.1 | 100 | 16.7 | 177 | – | > 56.2 | – | –
22 | 55.9 | – | – | C=C(C(=O)O)C1(c2nc(C3(c4ccc(C(F)(F)F)cc4)CC3)no2)CC1 [Example 156, 2-(1-(3-(1-(4-(trifluoromethyl)phenyl)cyclopropyl)-1,2,4-oxadiazol-5-yl)cyclopropyl)acrylic acid] | – | −16.4 | > 100 | 0 | – | 5.3 | – | –
23 | 20.2 | > 100 | > 31.6 | C/C(=C\c1nc(C2(c3ccc(S(F)(F)(F)(F)F)cc3)CC2)no1)C(=O)O [Example 169] | > 100 | 15.4 | > 100 | 43 | – | > 31.6 | – | 43

Row | SMILES | IC50 ([2]; differentiated THP-1 cells) [µM] | EC50 ([1]; −GSH, Table 5 exo vs endo comparison, read-out: −GSH EC50) [µM] | IC50 ([3]; THP-1, Table 3, head to head comparison of exo vs endo double bond compounds) [µM] | EC50 [1, 4] [µM] | NRF2 activation +GSH Emax [1, 5] [%] | EC50 [1, 6] [µM] | NRF2 activation −GSH Emax [1, 7] [%] | IC50 [2, 8] [µM] | IC50 [3, 9] [µM] | IL-1β lowering, result in words [3] | −GSH Emax ([1]; −GSH, normalised to DMF high control, Table 5 exo vs endo comparison) [%]
24 | C=C(Cc1nc(-c2cc(F)c(OCCCC)c(F)c2)no1)C(=O)O [Example 162, 2-((3-(4-butoxy-3,5-difluorophenyl)-1,2,4-oxadiazol-5-yl)methyl)acrylic acid] | 6.4 | – | – | 1.3 | 269 | 1.1 | 232 | – | > 46.4 | – | –
